Measured values taken from ChEMBL document CHEMBL1914447, “Novel orally active antimalarial thiazoles” (J Med Chem, 2011).
≈ marks a conversion by molar mass, not a printed value.

Experiments:
[1] = Lipophilicity, log D of the compound by gradient HPLC at pH 3.0; assay type: physicochemical; settings: buffer
[2] = Lipophilicity, log D of the compound by gradient HPLC at pH 7.4; assay type: physicochemical; settings: buffer
[3] = Kinetic solubility of the compound by nephelometry at pH 2.0; assay type: physicochemical; settings: buffer, read-out: Kinetic_solubility
Plasmodium falciparum [4] = test: microbe, parasite or virus in culture; settings: NF54
Plasmodium falciparum [5] = test: microbe, parasite or virus in culture; settings: K1
[6] = Kinetic solubility of the compound by nephelometry at pH 6.5; assay type: physicochemical; settings: buffer, read-out: Kinetic_solubility
Liver microsomes [7] = test: Metabolic stability in human liver microsomes at 1 uM by LC-MS analysis; assay type: ADME, Microsome
Liver microsomes [8] = test: Metabolic stability in rat liver microsomes at 1 uM by LC-MS analysis; assay type: ADME, Microsome
Liver = test: Metabolic stability in mouse liver microsomes at 1 uM by LC-MS analysis; assay type: ADME, Microsome

SMILES | chromatographic logD [1] | chromatographic logD [2] | solubility kinetic [3] [µg/mL] | IC50 (Plasmodium falciparum [4]) [µM] | IC50 (Plasmodium falciparum [5]) [µM] | solubility kinetic [6] [µg/mL] | Stability (Liver microsomes [7]) | Stability (Liver microsomes [8]) | Stability (Liver)
NCc1csc(NC(=O)c2ccn[nH]2)n1 | 0 | 0.1 | > 100 | > 44.8 | > 44.8 | > 100 | – | – | –
CC(C)(C)c1cc(C(=O)Nc2cccc(CN)c2)n(Cc2ccccc2)n1 | 2.2 | 2.9 | > 100 | 2.15 | 1.47 | 25 (≈ 69 µM) | Stable | Stable | Stable
NCc1csc(NC(=O)c2cnn[nH]2)n1 | -0.2 | -0.3 | > 100 | > 44.6 | > 44.6 | > 100 | – | – | –
CC(C)(C)c1cc(C(=O)Nc2ccncc2)n(Cc2ccccc2)n1 | 2.6 | 4 | > 100 | 3.88 | 7.05 | 6.3 (≈ 18.8 µM) | Unstable | Unstable | Unstable
CC(C)(C)c1cc(C(=O)Nc2ccccn2)n(Cc2ccccc2)n1 | 4.5 | 4.5 | 25 (≈ 74.8 µM) | 10.5 | 10.2 | 6.3 (≈ 18.8 µM) | Unstable | Unstable | Unstable
NCc1csc(NC(=O)c2ccccn2)n1 | 0.3 | 0.7 | > 100 | > 42.7 | > 42.7 | > 100 | – | – | –
CC(C)(C)c1cc(C(=O)Nc2nc(CO)cs2)n(Cc2ccccc2)n1 | 3.5 | 3.4 | 12.5 (≈ 33.7 µM) | 0.71 | 0.67 | 3.1 (≈ 8.37 µM) | Unstable | Unstable | Unstable
NCc1csc(NC(=O)c2ccon2)n1 | 0 | -0.1 | 50 (≈ 223 µM) | > 44.6 | > 44.6 | 50 (≈ 223 µM) | – | – | –
COc1ccc(C(=O)Nc2nc(CN)cs2)cc1 | 0.9 | 1.2 | 50 (≈ 190 µM) | 13.1 | 11.1 | 25 (≈ 94.9 µM) | – | – | –
Cn1nc(C(C)(C)C)cc1C(=O)Nc1nc(CN)cs1 | 1.2 | 1.6 | > 100 | > 34.1 | 34.1 | 50 (≈ 170 µM) | – | – | –
C[C@H]1[C@H](OC(=O)CCC(=O)O)O[C@@H]2O[C@@]3(C)CC[C@H]4[C@H](C)CC[C@@H]1[C@@]24OO3 [ARTESUNATE] | – | – | – | 0.004 | 0.003 | – | – | – | –
NCc1csc(NC(=O)c2ncccn2)n1 | -0.2 | -0.1 | > 100 | > 42.5 | > 42.5 | > 100 | – | – | –
NCc1csc(NC(=O)c2cc3ccccc3o2)n1 | 1.1 | 1.5 | > 100 | > 36.6 | 36.6 | 50 (≈ 183 µM) | – | – | –
Cc1csc(NC(=O)c2cc(C(C)(C)C)nn2Cc2ccccc2)n1 | 4.7 | 4.7 | < 1.6 | 4.12 | 4.94 | < 1.6 | Unstable | Unstable | Unstable
